Experimental data published in patent publication US11958831B2, “Pyrazole compounds, pharmaceutical compositions thereof and use thereof” (ARTIVILA (SHENZHEN) INNOVATION CENTER, LTD., priority 2018, dated 2024).

How the values were obtained:
IRAK4 kinase = IRAK4 kinase (Homo sapiens (Human), UniProt Q9NWZ3); experiment: IRAK4 kinase activity assay (mobility shift, Km ATP); type: biochemical; conditions: Km ATP (15.6 μM ATP), 1 nM IRAK4, 60 min room temperature
Description: Inhibitory activity (IC50) of the compounds against IRAK4 kinase under Km ATP was detected through mobility spectrum analysis (MSA). IRAK4 kinase was purchased from Carna (Cat. No.: 09-145, batch No.: 14CBS-0020H), and Kinase Substrate 8 was purchased from GL Biochem (Cat. No.: 112396, batch No.: P171207-MJI112396).
The compounds were prepared with DMSO to 100 times the final reaction concentration and diluted to 10 concentrations in sequence at a 3-fold dilution ratio starting from 1 μM. Then 0.25 μL was transferred to a 384-well plate using Echo550. A 1× kinase buffer (50 mM HEPES, pH=7.5, 0.0015% Brij-35, 10 mM MgCl2, 2 mM DTT) was used to prepare a kinase solution of 2.5 times the final concentration. Then 10 μL of the kinase solution of 2.5 times the final concentration was added to each compound well, shaken and mixed uniformly, and incubated at room temperature for 10 min. A 1× kinase buffer was used to prepare a mixed solution of ATP and substrate Kinase Substrate 8 with a concentration of 25/15 times the final concentration. 15 μL of the mixed solution of ATP and the substrate with a concentration of 25/15 times the final concentration were added to each well (the final concentration of IRAK4 kinase was 1 nM, the final concentration of the substrate was 3 μM, and the final concentration of ATP was 15.6 μM), shaken and mixed uniformly, and reacted at room temperature for 60 min. Finally, 30 μL of stopping solution (100 mM HEPES, pH=7.5, 0.0015% Brij-35, 0.2% Coating Reagent #3, 50 mM EDTA) was added to terminate the reaction. CaliperEZ Reader II was used to read data about conversion rates that was then converted into data about inhibition rates. According to the data about the inhibition rate at each concentration, the half maximal inhibitory concentration (IC50) (Table 1) was calculated by a Logit method.

[1] = system: TNFα secretion in THP-1 cells; experiment: Cellular activity assay: LPS-stimulated TNFα secretion in THP-1 cells (ELISA); type: cell-based; conditions: Homo sapiens, LPS 1 μg/mL, 4.5 h, read-out: IC50 inhibiting TNFα secretion in THP-1 cells stimulated by LPS
Description: Inhibition of IRAK4 by the compounds of the present application was evaluated in THP-1 cells for cellular activity. The stimulus used in this experiment was LPS. LPS is a TLR4 agonist that stimulates the secretion of TNFα through TLR-IRAK4 signaling pathway in the THP-1 cells. Once the signaling pathway is inhibited by IRAK4 inhibitors, the production of TNFα is inhibited. In this experiment, the secretion of TNFα was detected by ELISA.
150 μL of RPMI-1640 medium (Gibco, catalog No.: 11875-085) solution containing 10000 THP-1 cells were added to each well of a 96-well plate and then 25 μL of a test compound solution of 8 times the final concentration (starting from […], 3-fold dilution, 8 concentrations, each concentration containing 4% DMSO RPMI-1640 medium) were added, and they were mixed uniformly and incubated at 37° C. for 30 min. 25 μL of RPMI-1640 medium solution containing LPS were added to each well (the final LPS concentration was 1 μg/mL and the final DMSO concentration was 0.5%), mixed uniformaly, and incubated at 37° C. for 4.5 h. The 96-well plate was rotated at 2000 rpm for 5 min, then 50 μL of supernatant was taken, and the TNFα content in the supernatant was determined with a human ELISA kit (Life Technologies, catalog No.: KHC3011). The IC50 (Table 2) of the compound was calculated by XL-Fit.

IRAK4 kinase, sequence (Q9NWZ3 whole entry): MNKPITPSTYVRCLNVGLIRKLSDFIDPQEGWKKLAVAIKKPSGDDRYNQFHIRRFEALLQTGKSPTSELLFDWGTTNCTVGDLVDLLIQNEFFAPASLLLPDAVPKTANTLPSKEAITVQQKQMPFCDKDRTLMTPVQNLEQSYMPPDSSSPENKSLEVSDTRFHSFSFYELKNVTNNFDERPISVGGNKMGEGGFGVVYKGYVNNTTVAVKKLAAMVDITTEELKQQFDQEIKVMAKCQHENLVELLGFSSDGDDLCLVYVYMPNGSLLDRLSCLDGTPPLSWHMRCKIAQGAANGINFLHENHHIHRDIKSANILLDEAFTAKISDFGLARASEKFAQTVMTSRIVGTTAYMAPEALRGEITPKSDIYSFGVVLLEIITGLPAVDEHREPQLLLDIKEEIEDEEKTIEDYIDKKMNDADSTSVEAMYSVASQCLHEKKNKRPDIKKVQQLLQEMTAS

IC50 (IRAK4 kinase) [nM] | IC50 [1] [nM] | SMILES
1 | 46 | C[C@H](O)C(=O)N1CCC(N2CC(n3cc(NC(=O)c4cccc(-c5cnn(CC(F)F)c5)n4)c(C(F)F)n3)C2)CC1 [Example 34, (S)-6-(1-(2,2-difluoroethyl)-1H-pyrazol-4-yl)-N-(3-(difluoromethyl)-1-(1-(1-(2-hydroxypropionyl)piperidin-4-yl)azetidin-3-yl)-1H-pyrazol-4-yl)-2-picolinamide]
1.3 | 48 | C[C@@H](O)C(=O)N1CCC(N2CC(n3cc(NC(=O)c4cccc(-c5cnn(CC(F)F)c5)n4)c(C(F)F)n3)C2)CC1 [Example 35, (R)-6-(1-(2,2-difluoroethyl)-1H-pyrazol-4-yl)-N-(3-(difluoromethyl)-1-(1-(1-(2-hydroxypropionyl)piperidin-4-yl)azetidin-3-yl)-1H-pyrazol-4-yl)-2-picolinamide]

The next lines start with the compound.

SMILES | IC50 (IRAK4 kinase) [nM] | IC50 [1] [nM]
CC(C)(O)C(=O)N1CCC(N2CC(n3cc(NC(=O)c4cccc(-c5cnn(CC(F)(F)F)c5)n4)c(C(F)F)n3)C2)CC1 [Example 32, N-(3-(difluoromethyl)-1-(1-(1-(2-hydroxy-2-methylpropionyl)piperidin-4-yl)azetidin-3-yl)-1H-pyrazol-4-yl)-6-(1-(2,2,2-trifluoroethyl)-1H-pyrazol-4-yl)-2-picolinamide] | 0.97 | 52
C[C@@H](O)C(=O)N1CCC(N2CC(n3cc(NC(=O)c4cccc(-c5cnn(CC(F)(F)F)c5)n4)c(C(F)F)n3)C2)CC1 [Example 31, (R)—N-(3-(difluoromethyl)-1-(1-(1-(2-hydroxypropionyl)piperidin-4-yl)azetidin-3-yl)-1H-pyrazol-4-yl)-6-(1-(2,2,2-trifluoroethyl)-1H-pyrazol-4-yl)-2-picolinamide] | 0.79 | 42
CC(C)(O)C(=O)N1CCC(N2CC(n3cc(NC(=O)c4cccc(-c5cc[nH]n5)n4)c(C(F)F)n3)C2)CC1 [Example 41, N-(3-(difluoromethyl)-1-(1-(1-(2-hydroxy-2-methylpropionyl)piperidin-4-yl)azetidin-3-yl)-1H-pyrazol-4-yl)-6-(1H-pyrazol-3-yl)-2-picolinamide] | 0.43 | 23
